According to patent publication US4442106A, “Quinoline derivatives, pharmaceutical compositions containing such compounds, and methods of treating cardiovascular conditions with them” (ACF Chemiefarma N.V., priority 1980, dated 1984):
Where two headings read alike, the source gives them in different places.

How the values were obtained:
[1] = system: spontaneously hypertensive rats; assay: Effectiveness in spontaneously hypertensive rats: systolic blood pressure by tail cuff method; assay type: in vivo; conditions: Rattus norvegicus, read-out: Change of systolic blood-pressures
Protocol: Experiment 1-Effectiveness of the compounds of Examples in spontaneously hypertensive rats
Systolic blood pressures were recorded by a modification of the tail cuff method described by I.M. Claxton et al., Eur. J.Pharmacology 37, 179 (1976). An oscilloscope or W+W BP recorder, model 8002, was used to display pulses.
Prior to all measurements rats were placed in a heated environment (33.5±0.5° C.) before transfer to a restraining cage. Each determination of blood pressure was the mean of at least 6 readings.
Spontaneously hypertensive rats (aged 12-18 weeks) with systolic blood pressures >170 mm Hg were considered hypertensive.
In the following table the results with certain compounds of the invention, which have been carried out with the above-described method, are mentioned. The numbers of the compounds correspond with those of the Examples.

[2] = system: right ventricle of the heart; assay: Guinea Pigs Electrostimulation Test (arrhythmias by electrostimulation of the right ventricle of the heart); assay type: in vivo; conditions: Cavia porcellus, 0.5 h, 30 minutes before stimulation, read-out: Percent increase in voltage required for arrhythmia; for change in vivo at 32 mg/kg: standard dose 32 mg/kg intraduodenal
Protocol: Experiment 2-Effectiveness of the compounds of Examples in the Guinea Pigs Electrostimulation Test
Arrhythmias are induced in guinea pigs by electrostimulation of the right ventricle of the heart. The animals are anaesthesized with urethane (1.2 g/kg i.p.) and artificially respirated before a needle electrode is inserted in the right ventricle of the heart. Substances are given intraduodinally 30 minutes before the stimulation at a standard dose of 32 mg/kg. In some cases a different dose was used as indicated.
The voltage needed for induction of extra systoles in control animals (n=6) is compared with that required for induction of arrhythmias in treated animals (n=6).
This method is based on the work of L. Szekeres and G. J. Papp, Naunyn-Schmiedebergs Arch. Exp. Path. Pharmak., 245, 70 (1963).
In the table the results of certain compounds of the invention are mentioned, which have been carried out according to the method described above.
The numbers of the compounds correspond with those of the Examples.

In the case of `C=C[C@H]1CN(CCCC(=O)c2ccc(F)cc2)CC[C@H]1CCC(=O)c1cc(C)nc2ccccc12` [Compound 28], the change in vivo at 10 mg/kg ([1]; 1 h) is reported as -5%, the change in vivo at 10 mg/kg ([1]; 2 h) is reported as -2% and the change in vivo at 10 mg/kg ([1]; 4 h) is reported as -10%. For the same compound, the change in vivo at 10 mg/kg ([1]; 6 h) was -11% and the change in vivo at 10 mg/kg ([1]; 24 h) was 5%.
`CC[C@H]1CN(CCCC(=O)c2ccccc2)CC[C@H]1CC(O)Cc1cc(OC)nc2ccccc12` (stereo partly drawn) [Compound 54, N-(3-benzoylpropyl)-2'-methoxy-hydrocinchonicinol-2] was tested, and the change in vivo at 32 mg/kg [2] was 16%, the change in vivo at 10 mg/kg ([1]; 1 h) was -17% and the change in vivo at 10 mg/kg ([1]; 2 h) was -1%. The change in vivo at 10 mg/kg ([1]; 4 h) was -16%, the change in vivo at 10 mg/kg ([1]; 6 h) was -16% and the change in vivo at 10 mg/kg ([1]; 24 h) was 7%.
Compound `CCCN1CC[C@@H](CCCc2cc(C)nc3ccccc23)[C@@H](CC)C1` [Compound 43, 2'-Methyl-N-propyl-desoxo-hydrocinchonicine.bioxalate] has a change in vivo at 32 mg/kg [2] of 9%, a change in vivo at 100 mg/kg ([1]; 1 h) of -1% and a change in vivo at 100 mg/kg ([1]; 2 h) of -12%. For the same compound, the change in vivo at 100 mg/kg ([1]; 4 h) was -28% and the change in vivo at 100 mg/kg ([1]; 24 h) was -15%.
`CCCCCN1CC[C@@H](CCCc2cc(C)nc3ccccc23)[C@@H](CC)C1` [Compound 44, N-pentyl-2'-methyl-desoxo-hydrocinchonicine] showed a change in vivo at 100 mg/kg ([1]; 1 h) of 2%, a change in vivo at 100 mg/kg ([1]; 2 h) of -15% and a change in vivo at 100 mg/kg ([1]; 4 h) of -30%. The change in vivo at 100 mg/kg ([1]; 6 h) was -43% and the change in vivo at 100 mg/kg ([1]; 24 h) was -6%.
`CCCN1CC[C@@H](CCC(O)c2cc(C)nc3ccccc23)[C@@H](CC)C1` (stereo partly drawn) [Compound 38, N-propyl-2'-methyl-hydrocinchonicinol-1] showed a change in vivo at 16 mg/kg ([2]; intraduodenal) of 31%, a change in vivo at 10 mg/kg ([1]; 1 h) of 1% and a change in vivo at 10 mg/kg ([1]; 2 h) of 0%. It also gave a change in vivo at 10 mg/kg ([1]; 4 h) of -3%, a change in vivo at 10 mg/kg ([1]; 6 h) of -4% and a change in vivo at 10 mg/kg ([1]; 24 h) of 0%.
Work on `CCCN1CC[C@@H](CC(O)Cc2cc(OC)nc3ccc(OC)cc23)[C@@H](CC)C1` (stereo partly drawn) [Compound 56] yielded a change in vivo at 20 mg/kg ([2]; at 20 mg/kg, intraduodenal) of 112%.
`CC[C@H]1CN(CCCC(=O)c2ccc(F)cc2)CC[C@H]1CCCc1cc(C)nc2ccccc12` [Compound 46, N-[3-(4-fluorobenzoyl)propyl]-2'-methyl-desoxo-hydrocinchonicine] was tested, and the change in vivo at 10 mg/kg ([1]; 1 h) was -22%, the change in vivo at 10 mg/kg ([1]; 2 h) was -24% and the change in vivo at 10 mg/kg ([1]; 4 h) was -20%. It also gave a change in vivo at 10 mg/kg ([1]; 6 h) of -20% and a change in vivo at 10 mg/kg ([1]; 24 h) of -1%.
`CCCN1CC[C@@H](CCC(=O)c2cc(C)nc3ccc(OC)cc23)[C@@H](CC)C1` [Compound 29] was tested, and the change in vivo at 16 mg/kg ([2]; intraduodenal) was 9%, the change in vivo at 100 mg/kg ([1]; 1 h) was -10% and the change in vivo at 100 mg/kg ([1]; 2 h) was -27%. It also gave a change in vivo at 100 mg/kg ([1]; 4 h) of -18%, a change in vivo at 100 mg/kg ([1]; 6 h) of -22% and a change in vivo at 100 mg/kg ([1]; 24 h) of 0%.
`CCCN1CC[C@@H](CC(O)Cc2cc(C(F)(F)F)nc3ccccc23)[C@@H](CC)C1` (stereo partly drawn) [Compound 60, N-propyl-2'-trifluoromethyl-hydrocinchonicinol-2] gave a change in vivo at 8 mg/kg ([2]; intraduodenal) of 137%.
In the case of `CCCN1CC[C@@H](CCC(O)c2cc(C)nc3ccc(OC)cc23)[C@@H](CC)C1` (stereo partly drawn) [Compound 40, N-propyl-2'-methyl-hydroquinicinol-1], the change in vivo at 16 mg/kg ([2]; intraduodenal) is reported as 44%.
`CCCCCN1CC[C@@H](CCC(=O)c2cc(C)nc3ccccc23)[C@@H](CC)C1` [Compound 27] showed a change in vivo at 32 mg/kg [2] of -2%, a change in vivo at 100 mg/kg ([1]; 1 h) of -1% and a change in vivo at 100 mg/kg ([1]; 2 h) of -13%. It also gave a change in vivo at 100 mg/kg ([1]; 4 h) of -28%, a change in vivo at 100 mg/kg ([1]; 6 h) of -16% and a change in vivo at 100 mg/kg ([1]; 24 h) of -3%.
Compound `CCCN1CC[C@@H](CCCc2cc(O)nc3ccc(OC)cc23)[C@@H](CC)C1` [Compound 49] has a change in vivo at 16 mg/kg ([2]; intraduodenal) of 21%.
`CCCN1CC[C@@H](CCCc2cc(O)nc3ccccc23)[C@@H](CC)C1` [Compound 48] gave a change in vivo at 16 mg/kg ([2]; intraduodenal) of 19%.
`CCCCCN1CC[C@@H](CC(O)Cc2cc(C(F)(F)F)nc3ccccc23)[C@@H](CC)C1` (stereo partly drawn) [Compound 61] gave a change in vivo at 8 mg/kg ([2]; intraduodenal) of 11%, a change in vivo at 10 mg/kg ([1]; 1 h) of -8% and a change in vivo at 10 mg/kg ([1]; 2 h) of -10%. For the same compound, the change in vivo at 10 mg/kg ([1]; 4 h) was -13%, the change in vivo at 10 mg/kg ([1]; 6 h) was -12% and the change in vivo at 10 mg/kg ([1]; 24 h) was -7%.
With `CC[C@H]1CN(CC(C)(C)O)CC[C@H]1CCC(=NOC)c1cc(C)nc2ccccc12` [Compound 66, N-(2-Hydroxy-2-methylpropyl)-2'-methyl-hydrocinchonicine-O-methyl oxime ether.bioxalate] the change in vivo at 16 mg/kg ([2]; intraduodenal) was 43%.
With `CCCc1cc(C(=O)CC[C@@H]2CCN(CCC)C[C@@H]2CC)c2ccccc2n1` [Compound 30, N-propyl-2'-propyl-hydrocinchonicine] the change in vivo at 8 mg/kg ([2]; intraduodenal) was 60%.
With `CCCc1cc(C(=O)CC[C@@H]2CCN(CCCC(=O)c3ccccc3)C[C@@H]2CC)c2ccccc2n1` [Compound 32, N-(3-benzoylpropyl)-2'-propyl-hydrocinchonicine] the change in vivo at 32 mg/kg [2] was 52%, the change in vivo at 10 mg/kg ([1]; 1 h) was -4% and the change in vivo at 10 mg/kg ([1]; 2 h) was -11%. For the same compound, the change in vivo at 10 mg/kg ([1]; 4 h) was -8%, the change in vivo at 10 mg/kg ([1]; 6 h) was -22% and the change in vivo at 10 mg/kg ([1]; 24 h) was -3%.
Work on `CC[C@H]1CN(CCCC(c2ccc(F)cc2)c2ccc(F)cc2)CC[C@H]1CC(O)Cc1cc(OC)nc2ccccc12` (stereo partly drawn) [Compound 55] yielded a change in vivo at 10 mg/kg ([1]; 1 h) of -11%, a change in vivo at 10 mg/kg ([1]; 2 h) of -5% and a change in vivo at 10 mg/kg ([1]; 4 h) of -7%. The change in vivo at 10 mg/kg ([1]; 6 h) was -10% and the change in vivo at 10 mg/kg ([1]; 24 h) was -2%.
In the case of `CCCCCN1CC[C@@H](CC(=O)Cc2cc(C(F)(F)F)nc3ccccc23)[C@@H](CC)C1` [Compound 64, 1-(2-Trifluoromethyl-4-quinolyl)-3-[3(R)-ethyl-N-pentyl-4(S)-piperidyl]-propanone-2.bifumarate], the change in vivo at 100 mg/kg ([1]; 1 h) is reported as -5%, the change in vivo at 100 mg/kg ([1]; 2 h) is reported as -23% and the change in vivo at 100 mg/kg ([1]; 4 h) is reported as -17%. For the same compound, the change in vivo at 100 mg/kg ([1]; 6 h) was -13% and the change in vivo at 100 mg/kg ([1]; 24 h) was -8%.
Work on `CC[C@H]1CN(CCCC(=O)c2ccc(F)cc2)CC[C@H]1CCCc1cc(C)nc2ccc(OCCC(C)C)cc12` [Compound 47, N-[3-(4-fluorobenzoyl)propyl]-2'methyl-6'-isopentoxy-oxy-desoxo-hydrocinchonicine] yielded a change in vivo at 10 mg/kg ([1]; 1 h) of -26%, a change in vivo at 10 mg/kg ([1]; 2 h) of -21% and a change in vivo at 10 mg/kg ([1]; 4 h) of -30%. For the same compound, the change in vivo at 10 mg/kg ([1]; 6 h) was -22% and the change in vivo at 10 mg/kg ([1]; 24 h) was 0%.
`CCCc1cc(C(O)CC[C@@H]2CCN(CCC)C[C@@H]2CC)c2cc(OC)ccc2n1` (stereo partly drawn) [Compound 42, N-propyl-2'-propyl-hydroquinicinol-1] was tested, and the change in vivo at 16 mg/kg ([2]; intraduodenal) was 74%.
Work on `CCCCCN1CC[C@@H](CCC(=O)c2cc(CCC)nc3ccccc23)[C@@H](CC)C1` [Compound 31, N-pentyl-2'-propyl-hydrocinchonicine] yielded a change in vivo at 32 mg/kg [2] of 31%.
In the case of `CC[C@H]1CN(CCCC(=O)c2ccccc2)CC[C@H]1CCCc1cc(C)nc2ccccc12` [Compound 45, N-(3-benzoylpropyl)-2'-methyl-desoxo-hydrocinchonicine], the change in vivo at 10 mg/kg ([1]; 1 h) is reported as -14%, the change in vivo at 10 mg/kg ([1]; 2 h) is reported as -6% and the change in vivo at 10 mg/kg ([1]; 4 h) is reported as -14%. The change in vivo at 10 mg/kg ([1]; 6 h) was -21% and the change in vivo at 10 mg/kg ([1]; 24 h) was -2%.
`CCCN1CC[C@@H](CC(O)Cc2cc(C(F)(F)F)nc3ccccc23)[C@@H](CC)C1` (stereo partly drawn) [Compound 59, 1-(2-trifluoromethyl-4-quinolyl)-3-[3(R)-ethyl-N-propyl-4(S)-piperidyl]-propanol-2] showed a change in vivo at 4 mg/kg ([2]; at 4 mg/kg, intraduodenal) of 55%.
`CC[C@H]1CN(CC(C)(C)O)CC[C@H]1CCC(=O)c1cc(C(C)C)nc2ccccc12` [Compound 36, N-(2-hydroxy-2-methylpropyl)-2'-isopropylhydrocinchonicine.bioxalate] gave a change in vivo at 32 mg/kg [2] of 91%.
For `CC[C@H]1CN(C)CC[C@H]1CCC(=O)c1cc(OC)nc2ccccc12` [Compound 52, 2'-Methoxy-N-methyl-hydrocinchonicine.bioxalate], the change in vivo at 8 mg/kg ([2]; intraduodenal) was 25%.
Work on `CCCN1CC[C@@H](CC(O)Cc2cc(C(F)(F)F)nc3ccccc23)[C@@H](CC)C1` (stereo partly drawn) [Compound 58, N-propyl-2'-trifluoromethyl-hydrocinchonicinol-2] yielded a change in vivo at 10 mg/kg ([2]; at 10 mg/kg, intraduodenal) of 133%.
`CC[C@H]1CN(CCCC(=O)c2ccc(F)cc2)CC[C@H]1CCCc1cc(C(F)(F)F)nc2ccccc12` [Compound 50] gave a change in vivo at 10 mg/kg ([1]; 1 h) of -4%, a change in vivo at 10 mg/kg ([1]; 2 h) of -16% and a change in vivo at 10 mg/kg ([1]; 4 h) of -16%. For the same compound, the change in vivo at 10 mg/kg ([1]; 6 h) was -13%.
